Results from a melting point compilation (Tetko et al.).

SMILES	melting point
Cc1cc2nc(C)c(CCC(=O)O)c(C)n2n1	260 to 262 °C
Nn1c(S)nnc1-c1ccc(Br)cc1	202 to 204 °C
CS(=O)(=O)c1ccc(C(N)=S)cc1	216 to 218 °C
Cc1ccccc1CC(=O)Nc1ccc(C(=O)O)c(O)c1	222 to 224 °C
O=C(CCl)NCC(F)(F)F	51 to 53 °C
O=C(O)c1[nH]c2ccc(F)cc2c1Cl	279 to 281 °C
Cc1cc(C)n(Cc2ccc(C(=O)O)cc2)n1	179 to 181 °C
CC(=O)NCc1ccc(C(=O)O)s1	186 to 188 °C
CC1CCCCC1NC(=O)CCl (stereo not given)	100 to 102 °C
O=C(O)CCNC(=O)CCC(=O)O	132 to 134 °C
O=C(O)C1CC1[N+](=O)[O-] (stereo not given)	123 to 125 °C
CC(=O)NC1CCC(=O)CC1	136 to 140 °C
CC(C)C(=O)Nc1nc(CC(=O)O)cs1	187 to 189 °C
O=S(=O)(Cl)c1ccc(Cl)nc1	48 to 50 °C
O=C(O)c1cc(/C=C/c2cccc(Br)c2)nc2ccc(Br)cc12	307 to 309 °C
O=C1COc2ccc(F)cc2N1	204 to 206 °C
O=Cc1cc[nH]c1	59 to 61 °C
CN(C)C(=O)c1cccc(N)c1	84 to 86 °C
CCN(CC)CC(=O)Nc1ccc(C(F)(F)F)cc1N	94 to 96 °C
NC(=O)C1CCN(Cc2cccc(N)c2)CC1	139 to 141 °C
C=CCNS(=O)(=O)c1ccc(C(=O)O)cc1	215 to 217 °C
O=C(Nc1cccc(Br)c1)c1ccccc1	136 to 138 °C
Cc1cncc(CCC(=O)O)c1	99 to 101 °C
Nc1cnccc1O	156 to 158 °C
O=Cc1cn(Cc2ccccc2)nc1-c1cc2ccccc2o1	146 to 148 °C

SMILES	melting point
O=Cc1ccccc1OCc1cccnc1	57 to 59 °C
CN(C)C(=O)c1ccccc1C(=O)O	124 to 126 °C
CC(C)(C)n1ncc(C(=O)O)c1C(F)(F)F	110 to 112 °C
Cc1cccc(-c2nc(C)n[nH]2)c1	140 to 142 °C
COC(=O)COc1ccc(Br)cc1	49 to 51 °C
NC(=O)c1cnc(Cl)cn1	166 to 168 °C
O=C(OCc1ccccc1)N1CCC(S(=O)(=O)Cl)CC1	62 to 64 °C
O=C(O)CNC(=O)c1ccccc1I	174 to 176 °C
CC(C)COc1cn(-c2ccccc2)nc1C(=O)O	132 to 134 °C
CC(C)NC(=O)Nc1ccccc1C(=O)O	178 to 180 °C
Nc1noc(C2CC2)n1	84 to 86 °C
CNS(=O)(=O)c1cccc(C(C)=O)c1	96 to 98 °C
Cc1nnc(CO)n1C	155 to 157 °C
O=[N+]([O-])c1ccc2oc(CCl)nc2c1	115 to 117 °C
CC(C)(C)OC(=O)N1C(=O)NC(C)(C)C1=O	152 to 154 °C
CC(Cl)C(=O)Nc1ncccn1 (stereo not given)	148 to 150 °C
O=C(O)CCSc1ccc2c(c1)OCCCO2	63 to 65 °C
Nc1ccc(-c2cncnc2)cc1	208 to 210 °C
CCn1nc(N)cc1C1CC1	111 to 113 °C
Cc1c(C(=O)O)nnn1-c1ccc(Cl)cc1F	164 to 166 °C
O=[N+]([O-])c1ccc(-c2ncc(CO)o2)cc1	154 to 156 °C
CCOC(=O)N1CCc2nnc(Cl)cc2C1	106 to 108 °C
CC(C#N)CSc1ccccc1NC(=O)CCl (stereo not given)	94 to 96 °C
CCc1c(C(=O)Nc2cc(S(=O)(=O)N(CC)CC)ccc2O)[nH]c(C)c1C(C)=O	229 to 231 °C
Cc1sc(N)c(C#N)c1C	134 to 136 °C

SMILES	melting point
c1cnc2c(c1)NCCCN2	84 to 86 °C
CC(=O)NCCc1ccc(C(=O)C(C)Cl)cc1 (stereo not given)	85 to 89 °C
O=C(CCl)NC(=O)NC1CCCCC1	102 to 105 °C
CNC(C(=O)O)c1ccc(F)cc1F (stereo not given)	277 to 279 °C
O=C(O)CCNC(=O)C1CCC1	105 to 107 °C
O=C(O)Cc1c[nH]c2ccc(Cl)cc12	157 to 159 °C
CC(C)(C)n1cc(C#N)c(N)n1	121 to 123 °C
CCCOc1cc2c(cc1OCCC)CCNCC2	61 to 63 °C
O=C(O)c1cc(Br)c(S(=O)(=O)Cl)c(Br)c1	199 to 201 °C
CCOc1ccc(-n2c(C)cc(C(=O)CCl)c2C)cc1	118 to 122 °C
Cc1cc([N+](=O)[O-])cc(S(=O)(=O)Cl)c1F	73 to 75 °C
Cc1ccccc1-n1c(Cl)nc2ccccc2c1=O	298 to 300 °C
CCc1ccccc1-n1cc(O)c(C(=O)O)n1	101 to 103 °C
Cc1sc(C(=O)O)cc1S(N)(=O)=O	249 to 251 °C
Cc1ccc(C#N)c(=O)n1C	129 to 131 °C
CCn1ncc2c(C(=O)O)cc(-c3ccccc3)nc21	236 to 238 °C
COc1ccc2c(-c3ccccc3)cc(NN)nc2c1	119 to 121 °C
O=C1C=CC(=O)N1C1CC1	54 to 56 °C
Cc1csc(NCC(=O)O)n1	224 to 226 °C
Cc1ccc(OCc2nc(C(=O)O)cs2)cc1	198 to 200 °C
Nc1nc(-c2c(F)cccc2F)n[nH]1	218 to 220 °C
O=C1CN(c2cc(Cl)ccc2Cl)CC(=O)N1	139 to 141 °C
CSc1ccc(-c2csc(N)n2)cc1	219 to 221 °C
Cc1ccc(Oc2ccc3[nH]c(C)c(C)c(=O)c3c2)cc1	284 to 286 °C
O=C(O)CCNC(=O)C12CC3CC(CC(C3)C1)C2	185 to 187 °C

SMILES	melting point
CC(=O)Oc1ccc2ccc(O)cc2c1	157 to 159 °C
NC(=O)c1cccc(C(=O)O)n1	249 to 251 °C
O=S(=O)(Cl)c1ccc2c(Cl)ccc(Cl)c2c1	127 to 129 °C
Sc1nnc(-c2ccncc2)o1	270 to 275 °C
O=C(O)C1CCCN1Cc1ccc(F)cc1 (stereo not given)	242 to 244 °C
Nc1nnc(SCC(=O)O)s1	196 to 198 °C
N#Cc1cccnc1C1CC1	60 to 62 °C
O=S(=O)(Cl)C12CC3CC(CC(C3)C1)C2	121 to 123 °C
O=C1C(Br)CCCN1c1ccccc1 (stereo not given)	80 to 82 °C
Cc1cc(C)cc(Nc2nnc(SC(C)C(=O)O)s2)c1 (stereo not given)	127 to 129 °C
COc1ccc(-c2nc(N)sc2C)cc1	120 to 122 °C
Nc1ccnn1Cc1ccccn1	68 to 70 °C
Cc1ccc(-c2ccccc2C(=O)O)cc1	146 to 148 °C
CNC(=O)C1CNCCO1 (stereo not given)	93 to 95 °C
N#CCCN(C(=O)CCl)c1ccc(F)cc1	85 to 87 °C
COc1ccc(CNS(=O)(=O)CC#N)cc1OC	126 to 128 °C
Cc1ccn(-c2ccc(Cl)nn2)n1	169 to 171 °C
CCOC(=O)c1cc2cc(C(=O)O)ccc2[nH]1	247 to 249 °C
Nc1ccccc1CSc1ccc(C(F)(F)F)cn1	74 to 76 °C
CCOC(=O)c1c(Cl)nc2ccccc2c1C	109 to 111 °C
Clc1nc(CSc2ccccc2)nc2sc3c(c12)CCCC3	55 to 57 °C
COc1ccc([N+](=O)[O-])cc1C#N	69 to 71 °C
Cc1ccc(NC(=O)OCC(F)(F)F)cc1	89 to 93 °C
COc1cc(C=O)ccc1OCc1csc(C)n1	86 to 88 °C
O=C(O)Cn1nccn1	129 to 131 °C

SMILES	melting point
CS(=O)(=O)N1CCN(C(=O)c2ccc(O)cc2)CC1	211 to 213 °C
CC(C)C1NC(=O)c2ccccc2NC1=O (stereo not given)	259 to 261 °C
Cc1noc2nc(C(C)C)cc(C(=O)O)c12	158 to 160 °C
CCCc1noc2nc(C)cc(C(=O)O)c12	169 to 171 °C
N#Cc1cccc(CCl)c1	67 to 70 °C
Clc1ccc(SC2CCNCC2)cc1	41 to 43 °C
CC(=O)Nc1cccc(N)c1C	142 to 144 °C
Cc1cc(Br)ccc1CC(=O)O	111 to 113 °C
NCC1(O)CCS(=O)(=O)CC1	175 to 177 °C
O=Cc1cn(-c2cccc(Cl)c2Cl)nn1	139 to 141 °C
CCOC(=O)CN1C(=O)CNC1=O	109 to 111 °C
CCN(CC)S(=O)(=O)c1ccc(F)c(C(=O)O)c1	161 to 163 °C
CC1CNc2cccnc2O1 (stereo not given)	132 to 134 °C
NC(=O)CC(NS(=O)(=O)c1cccc(F)c1)C(=O)O (stereo not given)	173 to 175 °C
CC(C)(C)Sc1ccc(C(N)=S)cc1	163 to 165 °C
CC(C)(C)OC(=O)N1CCCC(C)(C(=O)O)C1 (stereo not given)	117 to 119 °C
O=C(O)c1ncoc1CCC(F)(F)F	139 to 141 °C
Cc1cc(C(=O)O)ccc1NC(=O)OC(C)(C)C	178 to 180 °C
Oc1ccc(-c2nc3cc(Cl)ccc3s2)cc1	263 to 265 °C
OCc1nc(-c2ccco2)no1	123 to 125 °C
COC(=O)c1ccc(Br)cc1F	59 to 61 °C
CNc1cccnc1N1CCCC1	105 to 107 °C
COc1cccc(-c2cc(N)n(-c3ccc(C)cc3)n2)c1	109 to 111 °C
NC(=O)c1cccc(Cl)n1	124 to 126 °C
Cn1c(-c2ccccc2)c(C=O)c2ccccc21	125 to 127 °C

SMILES	melting point
COc1cc(NC(=O)C2CCCCC2)c(C(=O)O)cc1OC	155 to 157 °C
N#Cc1ccc2[nH]cnc2c1	203 to 205 °C
Cn1cc(C(=O)O)c(-c2ccc3c(c2)OCCCO3)n1	199 to 201 °C
Cn1c(=O)n(Cc2ccc(Br)cc2)c(=O)c2ccc(C(F)(F)F)nc21	103 to 105 °C
Cc1ccccc1-c1nnc(CCl)o1	99 to 101 °C
CC(N)c1ccc(-n2cncn2)cc1 (stereo not given)	78 to 80 °C
Cn1nccc1C1CCNCC1	66 to 68 °C
COc1ccc(C#N)cc1CBr	123 to 125 °C
Cn1ncc2c1CCCC2=O	89 to 91 °C
NC(=O)C1CCCN(c2ccc(N)cn2)C1 (stereo not given)	168 to 170 °C
N#Cc1cccc(C(=O)NN)c1	166 to 168 °C
Cn1c(S)nc2ccccc21	190 to 194 °C
O=C(CCl)Nc1ccc(Cl)c(Cl)c1	103 to 105 °C
CC(C)n1nnnc1S	89 to 91 °C
O=C(O)CCCN1C(=O)CCc2ccccc21	179 to 181 °C
O=C(O)c1ccc(OCc2ccncc2)cc1	278 to 280 °C
O=Cc1cn(-c2ccccc2)cn1	125 to 127 °C
NNC(=O)CSc1nc2ccccc2o1	169 to 171 °C
Cc1cc(C=O)c(C)n1CCN1CCOCC1	79 to 81 °C
CC(=O)c1c(C)nsc1N	183 to 185 °C
